Read-outs that look alike come from different tables or passages of the source.
Columns and labels:
[1] = tested on: M1 (rhabdomyosarcoma) tumor-bearing mice; experiment: Selectivity in vivo: biodistribution (tumor:tissue ratios)
Experimental: Mice (normal, healthy and M1-tumor-bearing) were injected intravenously at 4 mg/kg with B3 formulated in aqueous solution containing DMSO. At various times post B3 administration, the animals were sacrificed and B3 content in various tissues was determined in tissue extracts by fluorescence as described above. Biodistribution data of B3 (tumor:tissue ratios) obtained in M1 (rhabdomyosarcoma) tumor-bearing mice were also evaluated at various times. Within the first hour post intravenous administration of 4 mg/kg B3, tumor:tissue ratios for the muscle and skin were 1.5-2.0 and 3.1-3.9, respectively. Lymph nodes gave ratios of 0.7. […] Since this preferential accumulation was observed shortly after B3 administration, this photosensitizer can be activated with light shortly after its injection, which is convenient in clinical use.

L1210 cells [2] = experiment: Release/retention of B3 by cells in vitro; assay type: cell-based, Murine; conditions: after 1 hour incubation at 3 μg/ml; drug-free medium with 10% serum
Experimental: Release/retention of B3 by cells in vitro: L1210 cells were incubated for 1 hour with B3 at 3 μg/ml in the presence of 10% serum, then washed and placed in drug-free medium containing 10% serum. At various times duplicate aliquots were evaluated for cell content of B3 as described above.

L1210 cells [3] = experiment: Uptake of B3 by cells in vitro; assay type: cell-based, Murine; conditions: 3 μg/ml, 10% serum
Experimental: Uptake of B3 by cells in vitro: L1210 cells (5×10^6 /vial) were incubated in the presence of 10% serum with B3 at 3 μg/ml for times up to 100 minutes. At various times during incubation, duplicate vials were pulled out and the cells, following washing, were lysed and the amount of B3 in the extract determined by fluorescence in the presence of 1% Triton X-100.

[4] = Tissue distribution and clearance in vivo; conditions: mice, intravenous 4 mg/kg
Experimental: Mice (normal, healthy and M1-tumor-bearing) were injected intravenously at 4 mg/kg with B3 formulated in aqueous solution containing DMSO. At various times post B3 administration, the animals were sacrificed and B3 content in various tissues was determined in tissue extracts by fluorescence as described above.

[5] = tested on: Murine leukemia cells (L1210); experiment: Photosensitization of cells in vitro (broad spectrum light 9 j/cm^2; MTT cell viability); assay type: cell-based; conditions: for IC50: Mus musculus, L1210, light or radiation study, 20 h, 1 hour incubation, light 9 j/cm^2, viability 20 hours later, read-out: LD50 (dose causing 50% cell kill)
Experimental: Murine leukemia cells (L1210) were incubated in suitable buffer with and without serum in various amounts of the drug B3 for 1 hour. After removal of the drug, the cells were exposed to broad spectrum light at 9 j/cm^2. Cell viability was determined 20 hours later by the MTT colorimetric assay. Results are presented in FIGS. 2A and 2B as % cell kill for cells exposed to light only.

[6] = within first hour post intravenous 4 mg/kg

C=Cc1c(C)c2cc3nc(cc4[nH]c(cc5nc(cc1[nH]2)[C@@]1(C)C5=CC=C(C(=O)O)[C@H]1C(=O)OC)c(C)c4CCC(=O)OC)C(CCC(=O)OC)=C3C (relative stereo) [Example B3]
accumulation in tumor and other rapidly proliferating tissues versus normal tissues (in words) ([1]; shortly after intravenous 4 mg/kg): preferential accumulation of B3 in tumor and other rapidly proliferating tissues (lymph nodes) in contrast to normal, nonproliferating tissues
tumor:tissue ratio, lymph nodes [1, 6]: 0.7
tumor:tissue ratio, muscle [1, 6]: 1.5-2.0
tumor:tissue ratio, skin [1, 6]: 3.1-3.9
time after which release from cells is rapid and almost complete (L1210 cells [2]): ~30 min
time to reach maximum concentrations in cells (uptake) (L1210 cells [3]): ≤ 20 min
cellular pharmacokinetics in vitro (in words) (L1210 cells [3]; uptake and release, L1210 cells): very rapid pharmacokinetics in vitro
pharmacokinetics in vivo (in words) [4]: very rapid pharmacokinetics in vivo
time after which drug was cleared from tissues tested ([4]; aqueous solution containing DMSO): about 5 minutes
IC50 ([5]; in the absence of 10% serum): 0.007 mg/L
IC50 ([5]; in the presence of 10% serum): 0.035 mg/L
photosensitization of cells (in words) ([5]; with and without serum): very potent photosensitizer of cells and maintains this property in the presence of serum
